Experimental data taken from PubChem BioAssay (NCI).
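The concentration for 50% growth inhibition is given as GI50. The concentration for full growth arrest is given as TGI.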

Assays:
Test in all cases: NCI anticancer screen, dose series, 384-well format
[1] = test system: NCI-H226 lung
[2] = test system: NCI-H23 lung
[3] = test system: NCI-H322M lung
[4] = test system: NCI-H460 NSCLC
[5] = test system: NCI-H522 lung
[6] = test system: NCI/ADR-RES ovarian
[7] = test system: OVCAR-3 ovarian
[8] = test system: OVCAR-4 ovarian
[9] = test system: OVCAR-5 ovarian
[10] = test system: OVCAR-8 ovarian
[11] = test system: PC-3 prostate
[12] = test system: RXF 393 renal
[13] = test system: SF-268 CNS
[14] = test system: SF-295 CNS
[15] = test system: SF-539 CNS
[16] = test system: SK-MEL-2 melanoma
[17] = test system: SK-MEL-28 melanoma
[18] = test system: SK-MEL-5 melanoma
[19] = test system: SK-OV-3 ovarian
[20] = test system: SN12C renal
[21] = test system: SNB-19 CNS
[22] = test system: SNB-75 CNS
[23] = test system: SR leukemia
[24] = test system: SW-620 colon
[25] = test system: T-47D breast
[26] = test system: TK-10 renal
[27] = test system: U251 glioblastoma
[28] = test system: UACC-257 melanoma
[29] = test system: UACC-62 melanoma
[30] = test system: UO-31 renal

O=C(Nc1ccc(O)c(NS(=O)(=O)c2ccc(F)cc2)c1)c1ccc(-c2ccccc2)cc1
TGI [1]: 21.1 µM | GI50 [2]: 6.12 µM | TGI [2]: 18.6 µM | GI50 [3]: 4.58 µM | TGI [3]: 16.6 µM | GI50 [4]: 2.9 µM | TGI [4]: 10.3 µM | GI50 [5]: 2.3 µM | TGI [5]: 6.5 µM | GI50 [6]: 5.28 µM | TGI [6]: 17.5 µM | GI50 [7]: 2.86 µM | TGI [7]: 10.6 µM | GI50 [8]: 3.24 µM | TGI [8]: 14.5 µM | GI50 [9]: 10.2 µM | TGI [9]: 21.9 µM | GI50 [10]: 3.73 µM | TGI [10]: 14.1 µM | GI50 [11]: 3.94 µM | TGI [11]: 14.4 µM | GI50 [12]: 1.68 µM | TGI [12]: 4.57 µM | GI50 [13]: 4.51 µM | TGI [13]: 15.2 µM | GI50 [14]: 10.5 µM | TGI [14]: 22.4 µM | GI50 [15]: 5.63 µM | TGI [15]: 18.4 µM | GI50 [16]: 10.4 µM | TGI [16]: 22.2 µM | GI50 [17]: 11.4 µM | TGI [17]: 23.8 µM | GI50 [18]: 4.13 µM | TGI [18]: 15.3 µM | GI50 [19]: 6.15 µM | TGI [19]: 18.4 µM | GI50 [20]: 7.38 µM | TGI [20]: 19.7 µM | GI50 [21]: 7.07 µM | TGI [21]: 19.3 µM | GI50 [22]: 9.53 µM | TGI [22]: 21.2 µM | GI50 [23]: 1.65 µM | TGI [23]: 3.17 µM | GI50 [24]: 10.2 µM | TGI [24]: 22 µM | GI50 [25]: 8 µM | TGI [25]: 20.7 µM | GI50 [26]: 3.61 µM | TGI [26]: 11.8 µM | GI50 [27]: 5.41 µM | TGI [27]: 17.1 µM | GI50 [28]: 7.05 µM | TGI [28]: 19.8 µM | GI50 [29]: 4.96 µM | TGI [29]: 17.6 µM | GI50 [30]: 5.25 µM | TGI [30]: 16.9 µM
